From PubChem BioAssay (NCI) come the findings set out here.

Holding throughout (assay): NCI anticancer screen, dose series, 48 h
The test system of assay [1] is SW-620 colon.
Assay [2] has as its system COLO 205 colon.
In assay [3] the test system is KM12 colon.
Assay [4] has as its system NCI-H23 lung.
Assay [5] has as its system RPMI-8226 leukemia.
In assay [6] the test system is UO-31 renal.
The subject of assay [7] is NCI-H226 lung.
For assay [8], the system named is T-47D breast.
Assay [9] deals with HS 578T breast.
Assay [10] relates to MCF7 breast.

Molecules are shown by their SMILES. Several values for one entry are separate records, joined by “and”; a condition that tells them apart may be missing. Equal values may be shown once.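 Compound exposure: 48 hours, 5 concentrations, 96-well plates. At the GI50, growth is halved. TGI denotes the concentration required for complete inhibition of growth.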

For `CN(C)CCNc1ccc(CO)c2sc3ccc(O)cc3c(=O)c12`, the TGI in assay [1] was 10.5 µM; in assay [2] it was 16.8 µM; in [3], 7.3 µM; in assay [4], 4.14 µM; in [5], 12.8 µM; in assay [6], 6.68 µM. For the same compound, the TGI in assay [7] was found to be 8.48 µM; in assay [8], 7.68 µM.
Turning to `COc1cc2c(c(OC)c1OC)-c1ncc3c(OC)c(OC)c(OC)cc3c1C2`, the GI50 in [9] is 29.9 µM; in assay [1], 37 µM; in assay [2], 19.9 µM; in assay [3], 16.1 µM; in assay [5], 19 µM; in assay [6] it was 18 µM. The TGI in assay [9] is 67.3 µM; in [1], > 100 µM; in assay [2], 38.2 µM; in [3], 40.4 µM; in assay [5], 54.9 µM; in assay [6] it was 47.2 µM.
With `COc1cc(C2SCCCCCCCCCCSC(c3ccc(O)c(OC)c3)SCCCCCCCCCCS2)ccc1O` (centres undefined), the TGI in [1], in assay [2], in assay [3], in [4], in assay [5] and in assay [6] was > 100 µM each time. For the same compound, the TGI in assay [10], in assay [7] and in assay [8] was > 100 µM each time.
Turning to `COc1ccc2cc(/C=C/C(=O)c3ccc(Cl)cc3Cl)ccc2c1`, the GI50 in [9] is 39.3 µM; in [1], 24.1 µM; in [3], 29 µM; in assay [4] it was 47 µM; in assay [5], 16.2 µM; in assay [6], 36.6 µM. For the same compound, the values for the GI50 in assay [10] and in [7] were 4.83 µM and 30.4 µM, respectively. The TGI in [9] is > 100 µM; in [1], 67 µM; in assay [3] it was 85.4 µM; in assay [4] it was > 100 µM; in [5] it was 47.2 µM; in assay [6], > 100 µM. Besides, the TGI in assay [10] is 43.4 µM; in assay [7], > 100 µM.
For the compound `Nc1ccccc1C#C/C=C\C#Cc1ccc(OCCCNC(=O)c2cc3ccccc3[nH]2)cc1`, the GI50 in assay [9] was 15.1 µM; in assay [1] it was > 100 µM; in assay [2], 9.12 µM; in assay [3], 5.98 µM; in assay [4] it was 7.62 µM; in [5], 1.01 µM. Further, the results for the GI50 in assay [6], in assay [10] and in [7] were 41.7 µM, 1.26 µM and 14.4 µM, respectively. The TGI was > 100 µM in [9]; > 100 µM in assay [1]; > 100 µM in assay [2]; > 100 µM in [3]; 43.6 µM in assay [4]; 17.6 µM in assay [5]. The values for the TGI in assay [6], in assay [10] and in assay [7] were > 100 µM, 7.15 µM and 87.7 µM, respectively.
With `CCc1ccc(NC(=O)NC(=O)c2ccccc2[N+](=O)[O-])cc1Oc1ncc(Cl)cn1`, the TGI in assay [1] is > 100 µM; in assay [2], 0.106 µM; in [3] it was 0.728 µM; in assay [4], > 100 µM; in [5], > 4.64 µM; in assay [6], 45.5 µM. For the same compound, the values for the TGI in assay [10] and in [7] were > 100 µM and 0.0796 µM, respectively.
Consider `COc1ccc(-c2cs/c(=N\N=C\c3ccc(O)cc3O)n2/N=C/c2ccc(O)cc2O)cc1`, for which the GI50 in assay [9] is 2.7 µM; in [1] it was 2.33 µM; in assay [2], 2.09 µM; in assay [3], 1.98 µM; in [4], 1.95 µM; in assay [6] it was 1.5 µM. For the same compound, the GI50 was 1.9 µM in [10], 2.08 µM in [7] and 1.65 µM in assay [8]. Also, the TGI in assay [9] worked out at 7.36 µM; in [1], 4.91 µM; in assay [2], 4.19 µM; in assay [3] it was 4.6 µM; in [4], 4.64 µM; in assay [6], 3.2 µM. For the same compound, the results for the TGI in assay [10], in assay [7] and in assay [8] were 5.84 µM, 4.78 µM and 6.22 µM, respectively.
Regarding `OCc1ccc(N2CCc3cccc(F)c3C2)cc1Cl`, the GI50 was 21.9 µM in assay [9]; < 0.0209 µM in assay [1]; 0.0197 µM in assay [2]; 15.7 µM in assay [3]; 13.9 µM in [4]; 14.5 µM in [6]. The GI50 in assay [7] is 0.0191 µM. Also, the TGI in assay [9] was 77.8 µM; in assay [1], > 79.7 µM; in [2], 0.175 µM; in assay [3], 48.6 µM; in [4], 40.9 µM; in assay [5] it was 20.5 µM. For the same compound, the TGI in assay [6] was found to be 46.6 µM; in assay [10], 53.4 µM; in assay [7], 0.0936 µM.
With `O=c1c2cc(F)ccc2sc2c(N3CCNCC3)nc3ccc(F)cc3c12`, the GI50 in assay [9] is 1.7 µM; in assay [1], 1.61 µM; in [2], 2.15 µM; in [3] it was 1.79 µM; in assay [4], 1.67 µM; in [5], 2.16 µM. The GI50 was 1.31 µM in assay [6] and 1.53 µM in [7]. Also, the TGI in assay [9] was determined as 3.6 µM; in assay [1], 3.12 µM; in assay [2], 4.72 µM; in assay [3], 3.34 µM; in assay [4], 3.17 µM; in [5] it was 4.89 µM. The results for the TGI in assay [6] and in [7] were 2.6 µM and 3.03 µM, respectively.
Turning to `C=CCn1c(C)nc2ccc(Nc3nc(Nc4ccc(F)cc4)nc4ccccc34)cc21`, the GI50 in [9] was 9.83 µM; in assay [1], 2.8 µM; in assay [3], 4.07 µM; in assay [4], 4.23 µM; in assay [5], 1.85 µM; in assay [6] it was 4.53 µM. Further, the GI50 in [8] is 1.7 µM. Also, the TGI was found to be 56.7 µM in assay [9]; 10.7 µM in assay [1]; 16.4 µM in assay [3]; 26 µM in assay [4]; 4.57 µM in [5]; 19.3 µM in [6]. For the same compound, the TGI in assay [8] amounted to 4.23 µM.
In the case of `COc1ccc(NC(=O)CSC2=C(Nc3cccc(Br)c3)C(=O)N(Cc3ccccc3)C2=O)cc1Cl`, the GI50 is 35.4 µM in assay [9]; > 100 µM in [1]; > 100 µM in assay [2]; 65.5 µM in assay [3]; 4.14 µM in assay [5]; 12.5 µM in assay [6]. Further, the GI50 in assay [10] is 15.9 µM; in [7], > 100 µM; in assay [8], > 100 µM. Also, the TGI in [9], in assay [1], in assay [2], in assay [3], in assay [5] and in [6] was > 100 µM throughout. Further, the TGI in [10], in assay [7] and in [8] was > 100 µM in each case.
Consider `COc1ccc2c(=O)cc(-c3ccccc3)[nH]c2c1`, for which the GI50 in [9] was 0.758 µM; in [1], 0.444 µM; in assay [2], 0.364 µM; in assay [3], 0.405 µM; in [4] it was 1.25 µM; in assay [5], 0.564 µM. In addition, the values for the GI50 in [6], in assay [10] and in assay [7] were 0.716 µM, 0.387 µM and 2.14 µM, respectively. In addition, the TGI was > 100 µM in assay [9]; > 100 µM in [1]; 1.55 µM in assay [2]; > 100 µM in assay [3]; > 100 µM in assay [4]; > 58.4 µM in assay [5]. For the same compound, the TGI in [6], in assay [10] and in assay [7] was > 100 µM throughout.
In the case of `CCOC(=O)C(Cc1c[nH]c2c(N(CCO)CCO)cccc12)(NC(C)=O)C(=O)OCC`, the GI50 in [9] is 302 µM; in [1], 431 µM; in [2], 330 µM; in assay [3] it was 302 µM; in assay [4] it was > 1000 µM; in assay [6], > 1000 µM. Also, the values for the GI50 in assay [10], in assay [7] and in assay [8] were 141 µM, 439 µM and 396 µM, respectively. Further, the TGI in assay [9] was > 1000 µM; in [1] it was > 1000 µM; in assay [2] it was > 1000 µM; in assay [3], 978 µM; in [4], > 1000 µM; in [6], > 1000 µM. For the same compound, the TGI in [10] was 305 µM; in [7], > 1000 µM; in [8], > 1000 µM.
Take `COc1ccc(S(=O)(=O)N2CCN(C(=O)c3ccc(-c4ccccc4)cc3)CC2C(=O)NO)cc1` (centres undefined): the TGI in assay [2] is 12.5 µM and > 100 µM; in [4], 12.5 µM and > 100 µM; in assay [5], > 100 µM; in [6], 10.4 µM and > 100 µM; in assay [10] it was 3.2 µM; in assay [7], 12.5 µM and 88.9 µM. Besides, the TGI in [8] was 12.5 µM and > 100 µM. For the same compound, the GI50 in [5] is > 100 µM; in assay [10] it was 0.714 µM; in assay [7], 5.2 µM and 20.7 µM.
